Results published in PMC4884984, “Identification of approved and investigational drugs that inhibit hypoxia-inducible factor-1 signaling” (Oncotarget, 2016).
Where two headings read alike, the source gives them in different places.

Experiments:
[1] = test system: hypoxia response element-beta-lactamase (HRE–bla); assay: HRE-bla reporter gene assay in ME-180 cells; type: cell-based, human; details: Homo sapiens
Description: (§1) Cell culture of HRE–bla ME-180 cells (Cat. No. K1644, Life Technologies) and HRE–bla assay were conducted according to a reported protocol [6]. […] The fluorescence signals (460/25 nm and 530/20 nm) of CCF4 and luminescence signals of CellTiter-Glo were acquired on an Envision and a ViewLux plate readers (Perkin Elmer), respectively.

ME-180 cells = assay: Cancer cell proliferation assay, ME-180; type: cell-based; details: Homo sapiens; for Emax: read-out: ME-180 3-Day Viability Efficacy
Description: (§2) HCT116 and ME-180 cells (ATCC) were cultured according to manufacturer's instructions. […] Cell proliferation was quantified as relative luminescence unit (RLU) values using CellTiter-Glo viability assay reagent on a ViewLux plate reader (Perkin Elmer).

HIF-1α–NanoLuc = HIF-1α–NanoLuc reporter gene assay (qHTS primary and confirmatory screens); type: cell-based, human; details: Homo sapiens
[2] = test system: HIF-1α–NanoLuc HCT116 cells; assay: Viability (Luc): CellTiter-Glo counter screen in HIF-1α–NanoLuc cells; type: cell-based, human; details: for Viability (Luc) confirmatory IC50: Table S7, 1% O2, 18 h
HCT116 cells = assay: Cancer cell proliferation assay, HCT116; type: cell-based, human; details: for Emax / IC50: Homo sapiens; for Emax: read-out: HCT116 3-Day Viability Efficacy
Description: as §2

HRE–bla ME-180 cells = assay: Viability (BLA): CellTiter-Glo counter screen in HRE–bla cells; type: cell-based, human; details: for IC50: 1% O2, 18 h
Description: as §1

[3] = test system: co-cultures of human aortic endothelial cells and human mesenchymal stem cells; assay: In vitro angiogenesis co-culture assay (tube formation); type: cell-based; details: Homo sapiens, 72 h, Table 1, three-day exposure; for IC50: tube formation; for Emax: percentage of inhibition compared to DMSO controls, read-out: Angiogenesis Efficacy (converted)
Description: Cells were seeded in a 96-well clear bottom plate (Corning) for five hours and exposed to test compounds for three days at 37°C, 5% CO2.

[4] = ME-180, Table S7, confirmatory screen, read-out: HRE–bla confirmatory Efficacy
[5] = ME-180, Table S7, confirmatory screen, read-out: HRE–bla confirmatory IC50
[6] = ME-180, 72 h, Table S8, 3 days, read-out: ME-180 3-Day Viability IC50
[7] = 18 h, read-out: IC50 (primary screen, HIF-1α–NanoLuc assay)
[8] = read-out: Efficacy (primary screen, HIF-1α–NanoLuc assay)
[9] = read-out: HIF-1α–NanoLuc confirmatory Efficacy
[10] = read-out: HIF-1α–NanoLuc primary Efficacy
[11] = HCT-116, 72 h, Table S8, 3 days
[12] = HCT-116, 72 h, Table S8, 3 days, read-out: HCT116 3-Day Viability IC50
[13] = Homo sapiens, ME-180, Table S7, confirmatory screen
[14] = ME-180, Table 1, percentage of inhibition compared to DMSO controls, read-out: HRE-bla Efficacy (converted)
[15] = Table 1, ME-180 cells, 1% O2, 18 h, read-out: HRE-bla IC50
[16] = ME-180, Table 1, 72 h, read-out: 72-hr Viability ME-180 IC50
[17] = HCT-116, Table 1, HCT116 reporter cells, hypoxia 1% O2, 18 h, confirmatory, read-out: HIF-1α-NanoLuc IC50
[18] = Table 1, percentage of inhibition compared to DMSO controls, read-out: HIF-1α-NanoLuc Efficacy (converted)
[19] = Table S2, primary screen, read-out: Pathway inhibitors (primary screen) HIF-1α–NanoLuc Activity Efficacy
[20] = Table S2, primary screen, read-out: Pathway inhibitors (primary screen) HIF-1α–NanoLuc Activity IC50
[21] = Table S2, validation, read-out: Pathway inhibitors (validation) HIF-1α–NanoLuc Activity Efficacy
[22] = Table S7, confirmatory screen, read-out: HIF-1α–NanoLuc confirmatory Efficacy
[23] = Table S7, primary screen, read-out: HIF-1α–NanoLuc primary Efficacy
[24] = HCT-116, Table 1, 72 h, read-out: 72-hr Viability HCT116 IC50

Row | SMILES | Emax [1, 4] | IC50 [1, 5] | Emax (ME-180 cells; ME-180, 72 h, Table S8, 3 days) | IC50 (ME-180 cells; [6]) | Viability (Luc) confirmatory IC50 [2] | Emax (HCT116 cells; [11]) | IC50 (HCT116 cells; [12]) | IC50 (HRE–bla ME-180 cells; [13]) | Emax [1, 14] | IC50 [1, 15] | IC50 (ME-180 cells; [16]) | Emax (HIF-1α–NanoLuc; [19]) | IC50 (HIF-1α–NanoLuc; [20]) | Emax (HIF-1α–NanoLuc; [21]) | Emax (HIF-1α–NanoLuc; [22]) | Emax (HIF-1α–NanoLuc; [23]) | IC50 (HCT116 cells; [24]) | other results
1 | COc1cccc2c1C(=O)c1c(O)c3c(c(O)c1C2=O)C[C@@](O)(C(C)=O)C[C@@H]3O[C@H]1C[C@H](N)[C@H](O)[C@H](C)O1 [Daunorubicin] | 80 ± 5% | 1000 ± 440 nM | 101 ± 4% | 170 ± 80 nM | Inactive | 79 ± 28% | 2430 ± 1400 nM | 3280 ± 1230 nM | – | – | – | – | – | – | – | – | – | IC50 (HIF-1α–NanoLuc; [7]): 750 nM; Emax (HIF-1α–NanoLuc; [8]): 51%; Emax (HIF-1α–NanoLuc; [9]): 98 ± 8%; Emax (HIF-1α–NanoLuc; [10]): 51%; Emax (HIF-1α–NanoLuc; read-out: Pathway inhibitors (primary screen) HIF-1α–NanoLuc Activity Efficacy): 50%; Emax (HIF-1α–NanoLuc; read-out: Pathway inhibitors (validation) HIF-1α–NanoLuc Activity Efficacy): 98 ± 8%; IC50 (HIF-1α–NanoLuc; read-out: Pathway inhibitors (validation) HIF-1α–NanoLuc Activity IC50): 1960 ± 350 nM
2 | CCN(CC)CCNC(=O)c1c(C)[nH]c(/C=C2\C(=O)Nc3ccc(F)cc32)c1C [Sunitinib] | 81 ± 32% | – | – | – | – | – | – | 16000 ± 8130 nM | 81% | 17000 ± 3170 nM | 19000 ± 4340 nM | 60% | 1680 nM | 80 ± 15% | 80 ± 15% | 60% | 37200 nM | IC50 (HIF-1α–NanoLuc; [17]): 11300 ± 3710 nM; Emax (HIF-1α–NanoLuc; [18]): 80%; IC50 ([2]; Homo sapiens, HCT-116, Table S7, confirmatory screen, 1% O2, 18 h): 26400 ± 9410 nM; Emax ([2]; Homo sapiens, HCT-116, Table S7, confirmatory screen, read-out: Viability (Luc) confirmatory Efficacy): 26 ± 7%; HCT116 3-Day Viability IC50 (HCT116 cells; Table S8, 3 days): Inactive; Emax (HRE–bla ME-180 cells; Homo sapiens, ME-180, Table S7, confirmatory screen, read-out: Viability (BLA) confirmatory Efficacy): 60 ± 38%
3 | O=C1c2c(O)ccc(O)c2C(=O)c2c(NCCNCCO)ccc(NCCNCCO)c21 [Mitoxantrone] | 99 ± 10% | – | – | – | Inactive | – | – | 13400 ± 4400 nM | 99% | 860 ± 520 nM | 110 ± 30 nM | 80% | 2370 nM | 110 ± 5% | 110 ± 5% | 80% | 11100 ± 4790 nM | IC50 [3]: 4 ± 3 nM; Emax [3]: 101%; IC50 (HIF-1α–NanoLuc; [17]): 7650 ± 2130 nM; Emax (HIF-1α–NanoLuc; [18]): 110%; IC50 (HIF-1α–NanoLuc; Table S1, primary screen, hypoxia 1% O2, 18 h, read-out: IC50 (primary screen, HIF-1α–NanoLuc assay)): 2380 nM; Emax (HIF-1α–NanoLuc; Table S1, primary screen, read-out: Efficacy (primary screen, HIF-1α–NanoLuc assay)): 80%
4 | C[C@H]1O[C@@H](O[C@H]2CC[C@@]3(C)[C@H](CC[C@@H]4[C@@H]3C[C@@H](O)[C@]3(C)[C@@H](C5=CC(=O)OC5)CC[C@]43O)C2)C[C@H](O)[C@@H]1O[C@H]1C[C@H](O)[C@H](O[C@H]2C[C@H](O)[C@H](O[C@@H]3O[C@H](CO)[C@@H](O)[C@H](O)[C@H]3O)[C@@H](C)O2)[C@@H](C)O1 [Deslanoside] | 102 ± 3% | 160 ± 30 nM | 97 ± 3% | 310 ± 40 nM | Inactive | 63 ± 8% | 2590 ± 2870 nM | 320 ± 90 nM | – | – | – | – | – | – | – | – | – | IC50 (HIF-1α–NanoLuc; [7]): 300 nM; Emax (HIF-1α–NanoLuc; [8]): 115%; Emax (HIF-1α–NanoLuc; [9]): 108 ± 9%; IC50 (HIF-1α–NanoLuc; read-out: HIF-1α–NanoLuc confirmatory IC50): 390 ± 30 nM; Emax (HIF-1α–NanoLuc; [10]): 115%
5 | CC[C@@]1(O)C(=O)OCc2c1cc1n(c2=O)Cc2cc3c(CN(C)C)c(O)ccc3nc2-1 [Topotecan] | 131 ± 9% | – | – | – | – | – | – | – | 131% | 620 ± 380 nM | 100 ± 10 nM | – | – | – | – | – | 4300 ± 1200 nM | IC50 [3]: 10 nM; Emax [3]: 80%; Viability (BLA) confirmatory IC50 (HRE–bla ME-180 cells; Table S7, 1% O2, 18 h): Inactive
6 | C[C@@H]1O[C@@H](O[C@H]2C[C@@H](O)[C@]3(CO)[C@H]4[C@H](O)C[C@]5(C)[C@@H](C6=CC(=O)OC6)CC[C@]5(O)[C@@H]4CC[C@]3(O)C2)[C@H](O)[C@H](O)[C@H]1O [Ouabain] | 94 ± 4% | 80 ± 10 nM | 98 ± 4% | 130 ± 10 nM | – | 73 ± 13% | 630 ± 370 nM | 130 nM | – | – | – | – | – | – | – | – | – | –
7 | O=C(NOCC1CC1)c1ccc(F)c(F)c1Nc1ccc(I)cc1Cl [PD 184352] | 74 ± 5% | 5980 ± 690 nM | 100 ± 7% | 18000 ± 1170 nM | Inactive | 97 ± 4% | 13200 nM | 5930 ± 4080 nM | – | – | – | 64% | 840 nM | 99 ± 2% | 99 ± 2% | 64% | – | IC50 (HIF-1α–NanoLuc; Table S2, validation, read-out: Pathway inhibitors (validation) HIF-1α–NanoLuc Activity IC50): 13700 ± 930 nM
